Earlier results on one substance are cited in US20090111868A1 (priority 2004, published 2009).

Series [1] deals with BKCa channel α and β subunits (Homo sapiens, UniProt Q12791). Particulars: α and β subunits co-expressed; cited from earlier work.
The conditions of series [2]: not told; cited from earlier work.
For another series, the target named is BKCa channels (Homo sapiens, UniProt Q12791). The conditions noted are these: cited from earlier work.
Sequence of BKCa channels (Q12791 whole entry): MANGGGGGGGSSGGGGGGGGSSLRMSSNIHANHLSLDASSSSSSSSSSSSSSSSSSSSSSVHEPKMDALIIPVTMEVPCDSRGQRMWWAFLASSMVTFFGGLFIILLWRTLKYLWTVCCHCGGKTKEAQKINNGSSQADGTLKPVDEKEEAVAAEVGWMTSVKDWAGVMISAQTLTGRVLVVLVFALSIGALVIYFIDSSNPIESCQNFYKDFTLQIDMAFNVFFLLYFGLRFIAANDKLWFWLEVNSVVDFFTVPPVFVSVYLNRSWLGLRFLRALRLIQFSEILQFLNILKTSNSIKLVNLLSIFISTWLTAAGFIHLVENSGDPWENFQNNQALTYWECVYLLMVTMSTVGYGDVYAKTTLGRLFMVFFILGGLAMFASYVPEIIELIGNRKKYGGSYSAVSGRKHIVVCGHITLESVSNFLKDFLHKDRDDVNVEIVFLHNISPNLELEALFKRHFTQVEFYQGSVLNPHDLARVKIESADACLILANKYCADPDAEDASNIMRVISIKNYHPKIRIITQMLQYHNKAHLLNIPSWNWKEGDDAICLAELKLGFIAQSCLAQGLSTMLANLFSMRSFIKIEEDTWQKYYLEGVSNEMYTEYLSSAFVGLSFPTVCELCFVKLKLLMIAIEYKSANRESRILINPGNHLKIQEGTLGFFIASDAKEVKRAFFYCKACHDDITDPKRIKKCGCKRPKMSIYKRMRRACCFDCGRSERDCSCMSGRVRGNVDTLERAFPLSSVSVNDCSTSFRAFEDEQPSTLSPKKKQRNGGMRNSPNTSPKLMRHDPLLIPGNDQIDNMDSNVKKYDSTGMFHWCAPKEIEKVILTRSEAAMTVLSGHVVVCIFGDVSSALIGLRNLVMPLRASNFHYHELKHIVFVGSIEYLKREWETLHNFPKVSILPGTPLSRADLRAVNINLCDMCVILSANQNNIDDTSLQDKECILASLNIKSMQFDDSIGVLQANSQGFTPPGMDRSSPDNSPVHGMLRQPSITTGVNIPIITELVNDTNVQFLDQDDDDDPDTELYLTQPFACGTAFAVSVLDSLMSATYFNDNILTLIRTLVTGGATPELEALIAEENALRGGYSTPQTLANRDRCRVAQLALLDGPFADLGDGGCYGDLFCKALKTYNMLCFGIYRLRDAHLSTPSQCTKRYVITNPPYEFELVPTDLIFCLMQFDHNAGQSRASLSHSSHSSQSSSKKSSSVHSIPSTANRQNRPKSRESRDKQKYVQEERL

Sequence of BKCa channel α and β subunits (Q12791 whole entry): as above
Sequence of BKCa channel α and β subunits (Q16558 whole entry partner): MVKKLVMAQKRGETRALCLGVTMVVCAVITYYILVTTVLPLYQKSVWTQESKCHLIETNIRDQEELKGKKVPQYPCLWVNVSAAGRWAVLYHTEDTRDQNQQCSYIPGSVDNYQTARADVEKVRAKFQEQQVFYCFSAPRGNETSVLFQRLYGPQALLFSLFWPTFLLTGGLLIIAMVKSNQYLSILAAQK

In the case of dehydrosoyasaponin-I [DHS-I], in series [1], the channel activity entry is given as “increases channel activity”. Besides, the membrane permeability result in series [2] is listed as “poor”. Moreover, the BKCa channel activation result on BKCa channels is on record as “activate BKCa channels”.
